# ChEMBL document CHEMBL5331067, “Disubstituted pyrimidine-5-carboxamide derivatives as novel HIV-1 NNRTIs: Crystallographic overlay-based molecular design, synthesis, and biological evaluation” (Eur J Med Chem, 2023)
# Columns and labels:
# [1] = test system: Human immunodeficiency virus 1; assay: Antiviral activity against HIV-1 IIIB infected in human MT4 cells assessed as reduction in virus induced cytopathic effect incubated for 5 days by MTT assay; assay type: functional, organism-based; details: Human immunodeficiency virus 1, IIIB, MT4, 120 h
# [2] = Selectivity index, ratio of CC50 for cytotoxicity against human MT4 cells assessed as reduction in cell viability to EC50 for antiviral activity against HIV-1 IIIB infected in human MT4 cells assessed as reduction in virus induced cytopathic effect; assay type: toxicity, cell-based; details: read-out: Ratio CC50/EC50
# [3] = test system: Human immunodeficiency virus 1; assay: Antiviral activity against NNRTI-resistant HIV-1 harboring E138K mutant infected in human MT4 cells assessed as virus-induced cytopathicity incubated for 5 days by MTT assay; assay type: functional, organism-based; details: Human immunodeficiency virus 1, MT4, 120 h
# [4] = test system: Human immunodeficiency virus 1; assay: Antiviral activity against NNRTI-resistant HIV-1 harboring Y181C mutant infected in human MT4 cells assessed as virus-induced cytopathicity incubated for 5 days by MTT assay; assay type: functional, organism-based; details: Human immunodeficiency virus 1, MT4, 120 h
# [5] = test system: Human immunodeficiency virus 1; assay: Antiviral activity against NNRTI-resistant HIV-1 harboring Y188L mutant infected in human MT4 cells assessed as virus-induced cytopathicity incubated for 5 days by MTT assay; assay type: functional, organism-based; details: Human immunodeficiency virus 1, MT4, 120 h
# [6] = target: Human immunodeficiency virus type 1 reverse transcriptase (Human immunodeficiency virus 1, UniProt Q72547); assay: Inhibition of wild type HIV-1 reverse transcriptase assessed as reduction of biotin-dUTP incorporation into […] using ABTS as substrate incubated for 1 hrs by ELISA analysis
# [7] = Selectivity index, ratio of CC50 for cytotoxicity against human MT4 cells assessed as reduction in cell viability to EC50 for antiviral activity against NNRTI-resistant HIV-1 harboring Y188L mutant infected in human MT4 cells; assay type: toxicity, cell-based; details: read-out: Ratio CC50/EC50
# [8] = (§1) Fold resistance, ratio of EC50 for antiviral activity against NNRTI-resistant HIV-1 harboring Y181C mutant infected in human MT4 cells assessed as virus-induced cytopathicity to EC50 for antiviral activity against HIV-1 IIIB infected in human MT4 cells assessed as reduction in virus induced cytopathic effect; assay type: functional
# [9] = test system: Human immunodeficiency virus 1; assay: Antiviral activity against HIV-1 RES056 infected in human MT4 cells assessed as reduction in virus induced cytopathic effect incubated for 5 days by MTT assay; assay type: functional, organism-based; details: Human immunodeficiency virus 1, RES056, MT4, 120 h
# [10] = Selectivity index, ratio of CC50 for cytotoxicity against human MT4 cells assessed as reduction in cell viability to EC50 for antiviral activity against NNRTI-resistant HIV-1 harboring K103N mutant infected in human MT4 cells; assay type: toxicity, cell-based; details: read-out: Ratio CC50/EC50
# [11] = as §1, with “K103N” for “Y181C”; assay type: functional
# [12] = Selectivity index, ratio of CC50 for cytotoxicity against human MT4 cells assessed as reduction in cell viability to EC50 for antiviral activity against NNRTI-resistant HIV-1 harboring F227L/V106A double mutant infected in human MT4 cells; assay type: toxicity, cell-based; details: read-out: Ratio CC50/EC50
# [13] = as §1, with “L100I” for “Y181C”; assay type: functional
# [14] = Selectivity index, ratio of CC50 for cytotoxicity against human MT4 cells assessed as reduction in cell viability to EC50 for antiviral activity against NNRTI-resistant HIV-1 harboring E138K mutant infected in human MT4 cells; assay type: toxicity, cell-based; details: read-out: Ratio CC50/EC50
# [15] = test system: Human immunodeficiency virus 1; assay: Antiviral activity against NNRTI-resistant HIV-1 harboring F227L/V106A double mutant infected in human MT4 cells assessed as virus-induced cytopathicity incubated for 5 days by MTT assay; assay type: functional, organism-based; details: Human immunodeficiency virus 1, MT4, 120 h
# [16] = test system: Human immunodeficiency virus 1; assay: Antiviral activity against NNRTI-resistant HIV-1 harboring L100I mutant infected in human MT4 cells assessed as virus-induced cytopathicity incubated for 5 days by MTT assay; assay type: functional, organism-based; details: Human immunodeficiency virus 1, MT4, 120 h
# [17] = as §1, with “E138K” for “Y181C”; assay type: functional
# [18] = Cytotoxicity against human MT4 cells assessed as cell growth inhibition incubated for 5 days by MTT assay; assay type: toxicity, cell-based; details: time 5 day
# [19] = test system: Human immunodeficiency virus 1; assay: Antiviral activity against NNRTI-resistant HIV-1 harboring K103N mutant infected in human MT4 cells assessed as virus-induced cytopathicity incubated for 5 days by MTT assay; assay type: functional, organism-based; details: Human immunodeficiency virus 1, MT4, 120 h
# [20] = Selectivity index, ratio of CC50 for cytotoxicity against human MT4 cells assessed as reduction in cell viability to EC50 for antiviral activity against NNRTI-resistant HIV-1 harboring Y181C mutant infected in human MT4 cells; assay type: toxicity, cell-based; details: read-out: Ratio CC50/EC50
# [21] = as §1, with “F227L/V106A double” for “Y181C”; assay type: functional
# [22] = Selectivity index, ratio of CC50 for cytotoxicity against human MT4 cells assessed as reduction in cell viability to EC50 for antiviral activity against HIV-1 RES056 infected in human MT4 cells assessed as reduction in virus induced cytopathic effect; assay type: toxicity, cell-based; details: read-out: Ratio CC50/EC50
# [23] = as §1, with “F227L/V106A double” for “Y181C”, “RES056” for “IIIB”; assay type: functional
# [24] = Selectivity index, ratio of CC50 for cytotoxicity against human MT4 cells assessed as reduction in cell viability to EC50 for antiviral activity against NNRTI-resistant HIV-1 harboring L100I mutant infected in human MT4 cells; assay type: toxicity, cell-based; details: read-out: Ratio CC50/EC50
# [25] = as §1, with “Y188L” for “Y181C”; assay type: functional
SMILES,EC50 [1] [nM],selectivity ratio [2],EC50 [3] [nM],EC50 [4] [nM],EC50 [5] [nM],IC50 [6] [nM],selectivity ratio [7],Ratio EC50 [8],EC50 [9] [nM],selectivity ratio [10],Ratio EC50 [11],selectivity ratio [12],Ratio EC50 [13],selectivity ratio [14],EC50 [15] [nM],EC50 [16] [nM],Ratio EC50 [17],CC50 at 120 h [18] [nM],EC50 [19] [nM],selectivity ratio [20],also measured
Cc1cc(C#N)cc(C)c1Oc1nc(NC2CCN(c3ccc(NS(C)(=O)=O)cc3)CC2)ncc1C(N)=O,19,> 12100,226,259,24,200,> 9940,13.4,33200,> 1510,8,> 299,12.7,> 1040,781,247,11.6,> 233000,154,> 901,Ratio EC50 [21]: 40.3; selectivity ratio [22]: > 7; Ratio EC50 [23]: 1716.7; selectivity ratio [24]: > 946; Ratio EC50 [25]: 1.2
Cc1cc(C#N)cc(C)c1Oc1nc(NC2CCN(c3ccc(NS(N)(=O)=O)cc3)CC2)ncc1C(N)=O,33,5370,120,176,118,941,1480,5.4,152000,4730,1.1,301,11.3,1470,584,370,3.7,176000,37,997,Ratio EC50 [21]: 17.9; selectivity ratio [22]: 1; Ratio EC50 [23]: 4648.8; selectivity ratio [24]: 474; Ratio EC50 [25]: 3.6
Cc1cc(C#N)cc(C)c1Oc1nc(Nc2ccc(CN3CCNCC3)cc2)ncc1C(N)=O,13400,> 20,–,–,–,–,–,–,> 273000,–,–,–,–,–,–,–,–,> 273000,–,–,–
Cc1cc(C#N)cc(C)c1Oc1nc(NC2CCN(Cc3ccc(B(O)O)cc3)CC2)ncc1C(N)=O,42,> 5990,165,159,209,1040,> 1190,3.8,6630,> 5550,1.1,> 229,3.2,> 1520,1090,133,4,> 250000,45,> 1570,Ratio EC50 [21]: 26.2; selectivity ratio [22]: > 38; Ratio EC50 [23]: 159.1; selectivity ratio [24]: > 187; Ratio EC50 [25]: 5
Cc1cc(C#N)cc(C)c1Oc1nc(Nc2ccc(C#N)cc2)nc(N)c1Br [ETRAVIRINE],–,–,10,–,–,–,–,–,61,–,–,–,–,–,–,–,–,> 4600,–,–,–
Cc1cc(C#N)cc(C)c1Oc1nc(Nc2ccc(CN3CCN(S(C)(=O)=O)CC3)cc2)ncc1C(N)=O,1770,> 132,–,–,–,–,–,–,> 233000,–,–,–,–,–,–,–,–,> 233000,–,–,–
Cc1cc(C#N)cc(C)c1Oc1nc(Nc2ccc(C#N)c(F)c2)ncc1C(N)=O,11,3230,51,180,101,170,345,16.6,7190,1770,1.8,11,4.6,681,3110,50,4.7,34900,20,194,Ratio EC50 [21]: 287.6; selectivity ratio [22]: 5; Ratio EC50 [23]: 663.7; selectivity ratio [24]: 698; Ratio EC50 [25]: 9.4
Cc1cc(C#N)cc(C)c1Oc1nc(NC2CCN(Cc3ccc(S(N)(=O)=O)cc3)CC2)ncc1C(N)=O,46,4300,291,295,234,163,847,6.4,6120,3180,1.3,451,4.5,680,439,209,6.3,198000,62,671,Ratio EC50 [21]: 9.5; selectivity ratio [22]: 32; Ratio EC50 [23]: 132.9; selectivity ratio [24]: 946; Ratio EC50 [25]: 5.1
Cc1ccnc2c1NC(=O)c1cccnc1N2C1CC1 [NEVIRAPINE],151,–,168,–,–,–,–,–,> 15000,–,–,–,–,–,–,–,–,> 15000,–,–,–
Cc1cc(C#N)cc(C)c1Oc1nc(Nc2ccc(CN3CCN(S(N)(=O)=O)CC3)cc2)ncc1C(N)=O,1550,112,–,–,–,–,–,–,> 173000,–,–,–,–,–,–,–,–,173000,–,–,–
O=C1Nc2ccc(Cl)cc2[C@@](C#CC2CC2)(C(F)(F)F)O1 [EFAVIRENZ],–,–,–,–,–,–,–,–,–,–,–,–,–,–,–,–,–,> 6350,–,–,–
Cc1cc(C#N)cc(C)c1Oc1nc(Nc2ccc(C#N)cc2)ncc1C(N)=O,11,2820,70,395,193,196,167,34.6,8960,650,4.3,13,14.7,459,2550,168,6.2,32200,50,82,Ratio EC50 [21]: 223.3; selectivity ratio [22]: 4; Ratio EC50 [23]: 785.5; selectivity ratio [24]: 192; Ratio EC50 [25]: 16.9
Cc1cc(C#N)cc(C)c1Oc1nc(Nc2ccc(C#N)nc2)ncc1C(N)=O,128,218,–,–,–,–,–,–,> 27900,–,–,–,–,–,–,–,–,27900,–,–,–
Cc1cc(C#N)cc(C)c1Oc1nc(NC2CCN(c3cccc(C#N)c3)CC2)ncc1C(N)=O,276,402,–,–,–,–,–,–,48100,–,–,–,–,–,–,–,–,111000,–,–,–
Cc1cc(C#N)cc(C)c1Oc1nc(NC2CCN(c3cccc(C(N)=O)c3)CC2)ncc1C(N)=O,43900,> 6,–,–,–,–,–,–,> 257000,–,–,–,–,–,–,–,–,> 257000,–,–,–
